Assay results as given in US20260042754A1, “Substituted Bicyclic Heteroaryl Sulfonamide Derivatives for the Treatment of Cancer” (NODUS ONCOLOGY LIMITED, priority 2022, published 2026).
Where two headings read alike, the source gives them in different places.

Tests used:
[1] = system: RMUG-S mucinous cystadenocarcinoma ovarian cancer cell line; assay: Cell proliferation assay (CellTiter-Glo), RMUG-S, Examples 1-11; assay type: cell-based; details: Examples 1-11: 96-well, 5000 cells per well, 120 hours; highest concentration tested 9000 nM; read-out: RMUG-S GI50 (high PARG dependency)
Procedure: (§1) For Examples 1-11, RMUG-S mucinous cystadenocarcinoma (JCRB, #IF050320) and TOV-112D endometrioid adenocarcinoma (ATCC, #CRL-11731) ovarian cancer cell lines were grown in DMEM/F-12 with glutamine (BioConcept, #1-26F09-I) and RPMI with glutamine (BioConcept, #1-41F03-1), respectively, and both media containing 10% FBS (Sigma-Aldrich, #F9665) and supplemented with 1% Penicillin-Streptomycin (BioConcept, #4-01F00-H) using standard cell culture techniques. RMUG-S and TOV-112D ovarian cancer cell lines were selected as highly PARG dependent and having low PARG dependency, respectively, based on their publically available PARG shRNA (short hairpin ribonucleic acid) dropout profiles in the Cancer Dependency Map (DepMap) data portal (Broad Institute DepMap Project; Cheung H W et al, Proceedings of the National Academy of Sciences 2011; Cowley G S et al, Scientific Data 2014; McDonald E R et al, Cell 2017). PARG dependency of these cell lines was independently verified and confirmed by genetic and pharmacological means using shRNA-mediated PARG depletion, and the previously reported cell-permeable quinazolinedione PARG inhibitor tool compound PDD00017273 (Pillay N et al, Cancer Cell 2019). Thus, growth inhibition of the RMUG-S cell line serves as a functional on-target inhibition readout, while observing potent growth inhibition of TOV-112D is indicative of compound off-target activity. Cells were seeded in 96-well plates with clear bottom (Huberlab, #7.655 090) at a seeding density of 5000 cells per well in 100 μL of medium, and the plates were incubated overnight at 37° C. with 5% CO2 prior to treatment with compounds. Experimental compounds were prepared in DMSO at a concentration of 10 mM. Compounds were distributed at the desired final concentrations using the Tecan D300e Digital Dispenser (TECAN) and normalized to the highest DMSO volume. The plates were incubated for 120 hours and cell numbers were then measured using CellTiter-Glo® (Promega, #G9241), essentially as recommended by the manufacturer. Briefly, for the CellTiter-Glo® proliferation readout, 50 μL of the reconstituted CellTiter-Glo® 2.0 Reagent were added to 100 μL of medium containing cells. The plates were incubated at room temperature for 10 minutes to stabilize the luminescent signal, and luminescence intensity signals were then measured with a Synergy 4™ microplate reader (BioTek Instruments). Relative proliferation values were calculated by normalizing the raw data using DMSO-treated cells (100% proliferation) and the signals obtained from cells that were evaluated at the time of compound addition (0% proliferation). The concentration-response data were fitted to a sigmoidal 4-parameter logistic model with the maximum constrained to 100%. GI50 values were calculated from the curves as the compound concentrations reducing proliferation to 50%.

[2] = system: TOV-112D endometrioid adenocarcinoma ovarian cancer cell line; assay: Cell proliferation assay (CellTiter-Glo), TOV-112D; assay type: cell-based; details: 96-well, 5000 cells per well, 120 hours, highest concentration tested 9000 nM, off-target readout, read-out: TOV-112D GI50 (low PARG dependency)
Procedure: as §1

Row | Compound | GI50 [1] | GI50 ([2]; Homo sapiens, TOV112D) | GI50 [2]
1 | CO/N=c1\[nH]c2c(-c3ccc(C(=O)N(C)C)cc3)cc(S(=O)(=O)NC3(C)CC3)cc2c(=O)n1Cc1cnn(C)c1 [Example 5, 4-[2-methoxyimino-6-[(1-methylcyclopropyl)sulfamoyl]-3-[(1-methylpyrazol-4-yl)methyl]-4-oxo-1H-quinazolin-8-yl]-N,N-dimethyl-benzamide] | 500 to 2000 nM | ≥ 9 µM | –
2 | CO/N=c1\[nH]c2ccc(S(=O)(=O)NC3(C)CC3)cc2c(=O)n1Cc1cnc(C)s1 [Example 1, 2-methoxyimino-N-(1-methylcyclopropyl)-3-[(2-methylthiazol-5-yl)methyl]-4-oxo-1H-quinazoline-6-sulfonamide] | 500 to 2000 nM | ≥ 9 µM | –
3 | CO/N=c1\[nH]c2ccc(S(=O)(=O)NC3(C)COC3)cc2c(=O)n1Cc1cnn(C)c1 [Example 2, 2-methoxyimino-N-(3-methyloxetan-3-yl)-3-[(1-methylpyrazol-4-yl)methyl]-4-oxo-1H-quinazoline-6-sulfonamide] | 2000 to 9000 nM | ≥ 9 µM | –
4 | CON=c1[nH]c2c(N3CCN(C(=O)C4(C)CC4)[C@H](C)C3)cc(S(=O)(=O)NC3(C)CC3)cc2c(=O)n1Cc1cnn(C)c1 [Example 8, 2-methoxyimino-N-(1-methylcyclopropyl)-3-[(1-methylpyrazol-4-yl)methyl]-4-oxo-8-[(3R)-3-methyl-4-(1-methylcyclopropanecarbonyl)piperazin-1-yl]-1H-quinazoline-6-sulfonamide] | < 500 nM | – | 0.5 to 2 µM
5 | CO/N=c1\[nH]c2c(N3CCN[C@H](C)C3)cc(S(=O)(=O)NC3(C)CC3)cc2c(=O)n1Cc1cnn(C)c1 [Example 7, 2-methoxyimino-N-(1-methylcyclopropyl)-3-[(1-methylpyrazol-4-yl)methyl]-4-oxo-8-[(3R)-3-methylpiperazin-1-yl]-1H-quinazoline-6-sulfonamide] | 500 to 2000 nM | ≥ 9 µM | –
6 | Cc1nc(C)c(CO/N=c2\[nH]c3ccc(S(=O)(=O)NC4(C)CC4)cc3c(=O)n2Cc2cnn(C)c2)s1 [Example 3, 2-[(2,4-dimethylthiazol-5-yl)methoxyimino]-N-(1-methylcyclopropyl)-3-[(1-methylpyrazol-4-yl)methyl]-4-oxo-1H-quinazoline-6-sulfonamide] | 2000 to 9000 nM | ≥ 9 µM | –
